Assay results taken from ChEMBL document CHEMBL1150646, “Ravenic acid, a new tetramic acid isolated from a cultured microfungus, Penicillium sp” (J Nat Prod, 2002).
Activity calls are given as the source filed them. The rule behind the calls is not given here.

Test system: Staphylococcus aureus
Test: Antibacterial activity against methicillin-resistant Staphylococcus aureus at 25 ug/mL
Format: functional, organism-based

For C/C=C/C=C/C=C(C)/C=C/C(O)=C1\C(=O)CNC1=O, which inhibition is on record?
Its inhibition is “Active”.
